Data taken from publication PMC11012124, “Synthesis of Novel Triazine-Based Chalcones and 8,9-dihydro-7H-pyrimido[4,5-b][1,4]diazepines as Potential Leads in the Search of Anticancer, Antibacterial and Antifungal Agents” (International Journal of Molecular Sciences, 2024).
≈ marks a conversion by molar mass, not a printed value.

Columns and labels:
RXF 393 = assay: cells; conditions: Homo sapiens, RXF 393, 48 h
UACC-62 = assay: cells; conditions: Homo sapiens, UACC-62, 48 h; for CC50: read-out: LC50
[1] = Hemolytic activity, spectrophotometric; type: cell-based, human; conditions: human, human red blood cells (huRBC), 5% hematocrit, 200 μg/mL, 37 °C
SF-539 = assay: cells; conditions: Homo sapiens, SF-539, 48 h; for CC50: read-out: LC50, SF-539, 48 h
LOX IMVI = assay: cells; conditions: Homo sapiens, 48 h; for CC50: read-out: LC50, LOX IMVI, 48 h
PC-3 = assay: cells; conditions: Homo sapiens, PC-3, 48 h; for CC50: read-out: LC50
HCC-2998 = assay: cells; conditions: Homo sapiens, HCC 2998, 48 h; for CC50: read-out: LC50
TK-10 = assay: cells; conditions: Homo sapiens, TK-10, 48 h; for CC50: read-out: LC50
MDA-MB-231/ATCC = assay: cells; conditions: Homo sapiens, MDA-MB-231, 48 h; for CC50: read-out: LC50
SK-OV-3 = assay: cells; conditions: Homo sapiens, SK-OV-3, 48 h; for CC50: read-out: LC50
T-47D = assay: cells; conditions: Homo sapiens, T47D, 48 h; for CC50: read-out: LC50
MCF7 = assay: cells; conditions: Homo sapiens, MCF7, 48 h; for CC50: read-out: LC50
DU-145 = assay: cells; conditions: Homo sapiens, DU-145, 48 h; for CC50: read-out: LC50
SR = assay: cells; conditions: Homo sapiens, 48 h; for CC50: read-out: LC50
MDA-MB-468 = assay: cells; conditions: Homo sapiens, MDA-MB-468, 48 h; for CC50: read-out: LC50
NCI-H522 = assay: cells; conditions: Homo sapiens, NCI-H522, 48 h; for CC50: read-out: LC50
K-562 = assay: cells; conditions: Homo sapiens, K562, 48 h; for GI50: K-562, 48 h; for CC50: read-out: LC50
A498 = assay: cells; conditions: Homo sapiens, A498, 48 h; for CC50: read-out: LC50
HS 578T = assay: cells; conditions: Homo sapiens, 48 h; for CC50: read-out: LC50
HOP-92 = assay: cells; conditions: Homo sapiens, HOP-92, 48 h; for CC50: read-out: LC50
OVCAR-3 = assay: cells; conditions: Homo sapiens, OVCAR-3, 48 h
MOLT-4 = assay: cells; conditions: Homo sapiens, MOLT-4, 48 h; for CC50: read-out: LC50
[2] = test system: N. gonorrhoeae ATCC 49226; assay: MIC on GC agar plates; type: cell-based, Neisseria gonorrhoeae; conditions: Neisseria gonorrhoeae, ATCC49226, read-out: MIC
Description: An initial screening for bacterial inhibition was performed by the agar diffusion method. […] DMSO and TSB were included as negative controls. Gentamicin and trimethoprim sulfamethoxazole were included as a positive control for growth inhibition. Derivatives showing growth inhibition were tested at least twice before being selected for the microdilution test. For N. gonorrhoeae, the agar diffusion method was also used for screening with some modifications. […] Penicillin and tetracycline were used as controls. […] Briefly, GC agar supplemented with 1% isovitalex was prepared with increasing concentrations of the new compounds and inoculated with 10 µL of a bacterial suspension (1 × 10^4 CFU). The lowest concentration of the compound that inhibited bacterial growth was determined as the MIC. Bacterial growth was examined and verified using the oxidase test. The experiments were performed in duplicate in at least two independent assays.

HT29 = assay: cells; conditions: Homo sapiens, HT-29, 48 h; for CC50: read-out: LC50
CAKI-1 = assay: cells; conditions: Homo sapiens, CAKI-1, 48 h; for CC50: read-out: LC50
NCI/ADR-RES = assay: cells; conditions: Homo sapiens, 48 h; for CC50: read-out: LC50

## COc1cc(/C=C/C(=O)c2ccc(S(=O)(=O)NCCNc3nc(N(C)C)nc(N4CCOCC4)n3)cc2)cc(OC)c1OC [23d]
RXF 393
  GI50: 1.22 µM
RXF 393; read-out: LC50
  CC50: 8.63 µM
UACC-62
  GI50: 2.14 µM
  CC50: 22.8 µM
[1]
  hemolysis at 24 h, 200 µg/mL: 0.2%
SF-539
  GI50: 1.81 µM
  CC50: 6.29 µM
LOX IMVI
  GI50: 1.64 µM
  CC50: 5.76 µM
PC-3
  GI50: 3.76 µM
  CC50: > 100 µM
HCC-2998
  GI50: 1.8 µM
  CC50: 5.9 µM
TK-10
  GI50: 13.1 µM
  CC50: 50.8 µM
MDA-MB-231/ATCC
  GI50: 2.9 µM
  CC50: 36.7 µM
SK-OV-3
  GI50: 14.3 µM
  CC50: 52.7 µM
T-47D
  GI50: 5.74 µM
  CC50: 71.5 µM
MCF7
  GI50: 1.64 µM
  CC50: 9.66 µM
DU-145
  GI50: 3.31 µM
  CC50: 34.1 µM
SR
  GI50: 1.88 µM
  CC50: > 100 µM
MDA-MB-468
  GI50: 1.69 µM
  CC50: 6.66 µM
NCI-H522
  GI50: 1.66 µM
  CC50: 6.37 µM
K-562
  GI50: 1.46 µM
  CC50: > 100 µM
A498
  GI50: 14.2 µM
  CC50: 52.6 µM
HS 578T
  GI50: 2.29 µM
  CC50: > 100 µM
HOP-92
  GI50: 7.27 µM
  CC50: 76 µM
OVCAR-3
  GI50: 2.02 µM
OVCAR-3; read-out: LC50
  CC50: 8.84 µM
MOLT-4
  GI50: 2.23 µM
  CC50: > 100 µM
[2]
  MIC: > 500 µg/mL
HT29
  GI50: 1.72 µM
  CC50: 5.93 µM
CAKI-1
  GI50: 10.6 µM
  CC50: 51 µM

## Cc1ccc(C2CC(c3ccc(Nc4nc(NCCO)nc(Nc5ccc(Cl)cc5)n4)cc3)=Nc3c(N)nc(N)nc3N2)cc1 (stereo not shown) [33b]
RXF 393
  GI50: 1.45 µM
UACC-62
  GI50: 1.82 µM
  CC50: 6.33 µM
SF-539
  GI50: 1.57 µM
  CC50: 5.63 µM
LOX IMVI
  GI50: 1.65 µM
  CC50: 5.69 µM
PC-3
  GI50: 1.74 µM
  CC50: 7.43 µM
NCI/ADR-RES
  GI50: 1.73 µM
  CC50: 6.97 µM
HCC-2998
  GI50: 1.55 µM
  CC50: 5.56 µM
TK-10
  GI50: 1.9 µM
  CC50: 6.02 µM
MDA-MB-231/ATCC
  GI50: 1.67 µM
  CC50: 6.37 µM
SK-OV-3
  GI50: 2.69 µM
  CC50: 25.6 µM
T-47D
  GI50: 1.67 µM
  CC50: 8.01 µM
MCF7
  GI50: 1.46 µM
  CC50: 6.22 µM
DU-145
  GI50: 1.76 µM
  CC50: 5.77 µM
SR
  GI50: 1.68 µM
  CC50: > 100 µM
MDA-MB-468
  GI50: 1.65 µM
  CC50: 6.09 µM
NCI-H522
  GI50: 1.72 µM
  CC50: 7.03 µM
K-562
  GI50: 1.34 µM
  CC50: 24.9 µM
A498
  GI50: 3.85 µM
  CC50: 42 µM
HS 578T
  GI50: 1.79 µM
  CC50: > 100 µM
HOP-92
  GI50: 1.3 µM
  CC50: 6.3 µM
MOLT-4
  GI50: 1.38 µM
  CC50: > 100 µM
[2]
  MIC: 0.5 µg/mL (≈ 0.802 µM)
HT29
  GI50: 1.78 µM
  CC50: 7.14 µM
CAKI-1
  GI50: 1.64 µM
  CC50: 5.73 µM

## Nc1nc(N)c2c(n1)NC(c1ccccc1)CC(c1ccc(Nc3nc(NCCO)nc(Nc4ccc(Cl)cc4)n3)cc1)=N2 (stereo not shown) [33a]
RXF 393
  GI50: 1.63 µM
UACC-62
  GI50: 1.84 µM
  CC50: 6 µM
[1]
  hemolysis at 24 h, 200 µg/mL: 8%
SF-539
  GI50: 1.6 µM
  CC50: 5.85 µM
LOX IMVI
  GI50: 1.54 µM
  CC50: 5.66 µM
PC-3
  GI50: 1.59 µM
NCI/ADR-RES
  GI50: 4.33 µM
  CC50: > 100 µM
HCC-2998
  GI50: 1.68 µM
  CC50: 5.72 µM
TK-10
  GI50: 2.09 µM
  CC50: 7.16 µM
MDA-MB-231/ATCC
  GI50: 1.75 µM
  CC50: 6.94 µM
SK-OV-3
  GI50: 17.7 µM
  CC50: 57.9 µM
T-47D
  GI50: 1.52 µM
  CC50: 7.29 µM
MCF7
  GI50: 1.51 µM
  CC50: 6.1 µM
DU-145
  GI50: 1.8 µM
  CC50: 6.34 µM
SR
  GI50: 0.55 µM
MDA-MB-468
  GI50: 1.51 µM
  CC50: 5.93 µM
NCI-H522
  GI50: 1.79 µM
  CC50: 6.77 µM
K-562
  GI50: 1.01 µM
  CC50: > 100 µM
A498
  GI50: 1.54 µM
  CC50: 5.96 µM
HS 578T
  GI50: 1.98 µM
  CC50: > 100 µM
HOP-92
  GI50: 1.42 µM
  CC50: 6.74 µM
MOLT-4
  GI50: < 0.01 µM
  CC50: > 100 µM
[2]
  MIC: 1 µg/mL (≈ 1.64 µM)
HT29
  GI50: 1.77 µM
  CC50: 6.28 µM
CAKI-1
  GI50: 2.3 µM
  CC50: 24.8 µM
